Common to all, as to assay: biochemical
For assay [1], the target named is T1, panel of 374 wild-type kinases (Homo sapiens, UniProt P04049).
T1 construct: purchased Reaction Biology Corporation
The following applies: read-out: % Enzyme Activity (relative to DMSO controls), kinase RAF1.

Assay [2] addresses T2, panel of 374 wild-type kinases (Homo sapiens, UniProt P06241).
T2 construct: purchased Reaction Biology Corporation
The note with it: read-out: % Enzyme Activity (relative to DMSO controls), FYN.

Assay [3] concerns the target T3, panel of 374 wild-type kinases (Homo sapiens, UniProt P10721).
T3 construct: purchased Reaction Biology Corporation
The note with it: read-out: % Enzyme Activity (relative to DMSO controls), c-Kit.

The target of assay [4] is T4, panel of 374 wild-type kinases (Homo sapiens, UniProt P36888).
T4 construct: purchased Reaction Biology Corporation
T4 sequence (P36888 27-993): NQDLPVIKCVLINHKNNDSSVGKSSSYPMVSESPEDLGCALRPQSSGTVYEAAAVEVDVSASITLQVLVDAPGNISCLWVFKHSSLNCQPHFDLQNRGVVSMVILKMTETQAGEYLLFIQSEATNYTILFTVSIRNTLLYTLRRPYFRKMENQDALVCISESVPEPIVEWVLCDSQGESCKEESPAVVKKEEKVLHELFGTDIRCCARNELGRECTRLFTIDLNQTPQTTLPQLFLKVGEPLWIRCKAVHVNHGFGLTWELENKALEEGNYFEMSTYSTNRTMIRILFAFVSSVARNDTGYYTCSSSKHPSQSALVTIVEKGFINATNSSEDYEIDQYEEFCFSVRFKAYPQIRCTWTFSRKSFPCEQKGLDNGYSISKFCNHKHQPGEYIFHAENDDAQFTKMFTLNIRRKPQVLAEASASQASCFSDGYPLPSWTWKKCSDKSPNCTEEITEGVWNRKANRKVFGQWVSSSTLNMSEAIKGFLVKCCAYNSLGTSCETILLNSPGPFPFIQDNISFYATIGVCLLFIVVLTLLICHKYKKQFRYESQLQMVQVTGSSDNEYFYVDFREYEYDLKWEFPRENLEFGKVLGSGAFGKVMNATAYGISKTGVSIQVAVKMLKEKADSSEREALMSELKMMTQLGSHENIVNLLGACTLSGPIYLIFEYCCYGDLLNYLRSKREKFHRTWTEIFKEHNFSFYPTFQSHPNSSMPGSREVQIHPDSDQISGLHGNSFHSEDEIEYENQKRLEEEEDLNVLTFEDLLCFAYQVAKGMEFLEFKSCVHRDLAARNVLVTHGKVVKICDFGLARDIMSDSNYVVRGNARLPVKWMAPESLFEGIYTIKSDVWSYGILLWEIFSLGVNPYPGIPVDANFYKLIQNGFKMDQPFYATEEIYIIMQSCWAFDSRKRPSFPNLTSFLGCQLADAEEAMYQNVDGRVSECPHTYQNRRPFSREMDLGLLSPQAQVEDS
The following applies: read-out: % Enzyme Activity (relative to DMSO controls), FLT3.

For assay [5], the target named is T5, panel of 374 wild-type kinases (Homo sapiens, UniProt Q16513).
T5 construct: purchased Reaction Biology Corporation

Assay [6] deals with T6, panel of 374 wild-type kinases (Homo sapiens, UniProt Q5TCY1).
T6 construct: purchased Reaction Biology Corporation
The note with it: kinase TTBK1, read-out: % Enzyme Activity (relative to DMSO controls).

Assay [7] addresses T7, panel of 374 wild-type kinases (Homo sapiens, UniProt Q8N752).
T7 construct: purchased Reaction Biology Corporation
T7 sequence (Q8N752 1-337): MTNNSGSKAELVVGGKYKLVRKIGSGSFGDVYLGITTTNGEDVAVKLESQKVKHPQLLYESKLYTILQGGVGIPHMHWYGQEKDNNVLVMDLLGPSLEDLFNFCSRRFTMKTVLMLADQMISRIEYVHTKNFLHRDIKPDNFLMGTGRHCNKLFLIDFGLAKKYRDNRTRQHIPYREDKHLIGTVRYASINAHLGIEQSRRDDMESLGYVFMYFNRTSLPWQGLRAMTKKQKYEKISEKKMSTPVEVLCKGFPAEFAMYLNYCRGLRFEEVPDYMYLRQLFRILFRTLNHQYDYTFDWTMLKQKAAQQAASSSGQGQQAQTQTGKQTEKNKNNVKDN
The following applies: read-out: % Enzyme Activity (relative to DMSO controls), CK1a1L.

The target of assay [8] is T8, panel of 374 wild-type kinases (Homo sapiens, UniProt Q96BR1).
T8 construct: purchased Reaction Biology Corporation
T8 sequence (Q96BR1 1-496): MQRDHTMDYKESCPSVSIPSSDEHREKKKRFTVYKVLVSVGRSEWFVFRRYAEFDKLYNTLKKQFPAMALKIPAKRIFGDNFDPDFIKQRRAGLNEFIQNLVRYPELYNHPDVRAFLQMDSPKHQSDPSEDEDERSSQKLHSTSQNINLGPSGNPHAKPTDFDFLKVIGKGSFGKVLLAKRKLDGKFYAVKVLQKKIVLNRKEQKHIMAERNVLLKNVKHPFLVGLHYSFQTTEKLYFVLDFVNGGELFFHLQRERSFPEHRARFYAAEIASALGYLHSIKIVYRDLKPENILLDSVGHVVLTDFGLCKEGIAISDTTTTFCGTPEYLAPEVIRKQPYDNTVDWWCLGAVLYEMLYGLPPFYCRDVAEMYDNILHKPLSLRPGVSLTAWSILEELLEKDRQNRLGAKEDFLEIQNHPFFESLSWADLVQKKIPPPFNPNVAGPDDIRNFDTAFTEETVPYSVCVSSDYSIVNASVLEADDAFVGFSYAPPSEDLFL
The following applies: read-out: % Enzyme Activity (relative to DMSO controls), kinase SGK3/SGKL.

Like-named read-outs stand apart in the source and are kept apart here.

T6 sequence (Q5TCY1 whole entry): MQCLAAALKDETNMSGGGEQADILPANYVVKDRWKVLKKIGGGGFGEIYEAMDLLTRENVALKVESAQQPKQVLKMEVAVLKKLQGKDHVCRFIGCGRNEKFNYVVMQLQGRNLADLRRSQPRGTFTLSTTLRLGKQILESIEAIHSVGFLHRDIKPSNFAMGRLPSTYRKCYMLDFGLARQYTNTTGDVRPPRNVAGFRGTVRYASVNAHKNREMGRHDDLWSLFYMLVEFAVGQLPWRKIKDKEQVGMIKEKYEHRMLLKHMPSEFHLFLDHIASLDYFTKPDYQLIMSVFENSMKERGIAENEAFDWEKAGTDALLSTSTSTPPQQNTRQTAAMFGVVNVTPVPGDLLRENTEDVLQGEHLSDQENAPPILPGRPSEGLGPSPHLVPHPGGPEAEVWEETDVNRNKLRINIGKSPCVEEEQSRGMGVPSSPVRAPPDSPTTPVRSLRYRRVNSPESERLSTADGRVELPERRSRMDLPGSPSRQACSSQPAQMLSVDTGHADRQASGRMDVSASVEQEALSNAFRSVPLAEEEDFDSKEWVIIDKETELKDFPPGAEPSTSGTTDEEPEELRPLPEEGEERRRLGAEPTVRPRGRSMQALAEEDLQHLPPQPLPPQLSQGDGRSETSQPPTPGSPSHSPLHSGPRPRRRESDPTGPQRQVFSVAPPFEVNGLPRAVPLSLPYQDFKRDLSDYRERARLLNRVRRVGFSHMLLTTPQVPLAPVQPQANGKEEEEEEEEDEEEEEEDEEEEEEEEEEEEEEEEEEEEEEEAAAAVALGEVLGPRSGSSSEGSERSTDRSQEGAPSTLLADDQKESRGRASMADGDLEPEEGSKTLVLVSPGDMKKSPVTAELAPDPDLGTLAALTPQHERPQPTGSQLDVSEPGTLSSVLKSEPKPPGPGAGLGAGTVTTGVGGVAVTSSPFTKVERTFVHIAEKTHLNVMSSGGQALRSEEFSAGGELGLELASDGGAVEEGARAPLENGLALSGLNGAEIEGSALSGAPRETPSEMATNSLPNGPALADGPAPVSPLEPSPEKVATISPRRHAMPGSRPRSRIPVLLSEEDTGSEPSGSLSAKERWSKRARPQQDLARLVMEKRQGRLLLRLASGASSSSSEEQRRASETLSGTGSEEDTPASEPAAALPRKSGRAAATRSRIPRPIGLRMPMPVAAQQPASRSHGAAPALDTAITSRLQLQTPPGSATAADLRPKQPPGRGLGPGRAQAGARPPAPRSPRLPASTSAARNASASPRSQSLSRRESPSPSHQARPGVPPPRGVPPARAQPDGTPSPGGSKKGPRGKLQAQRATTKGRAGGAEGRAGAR
T2 sequence (P06241 whole entry): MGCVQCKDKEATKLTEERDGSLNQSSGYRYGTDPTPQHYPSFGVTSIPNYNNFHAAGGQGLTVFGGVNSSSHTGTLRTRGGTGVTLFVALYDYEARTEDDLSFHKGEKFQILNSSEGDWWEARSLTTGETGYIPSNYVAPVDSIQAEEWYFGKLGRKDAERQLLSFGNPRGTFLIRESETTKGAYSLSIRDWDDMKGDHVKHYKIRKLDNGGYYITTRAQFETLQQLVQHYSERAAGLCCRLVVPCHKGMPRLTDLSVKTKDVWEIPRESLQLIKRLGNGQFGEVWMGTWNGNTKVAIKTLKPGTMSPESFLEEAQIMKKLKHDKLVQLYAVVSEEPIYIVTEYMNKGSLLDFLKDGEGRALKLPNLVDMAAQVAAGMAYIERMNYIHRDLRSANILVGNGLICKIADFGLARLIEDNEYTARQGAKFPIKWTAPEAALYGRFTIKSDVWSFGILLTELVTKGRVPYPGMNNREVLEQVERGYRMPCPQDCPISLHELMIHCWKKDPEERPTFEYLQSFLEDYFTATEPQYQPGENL
T5 sequence (Q16513 whole entry): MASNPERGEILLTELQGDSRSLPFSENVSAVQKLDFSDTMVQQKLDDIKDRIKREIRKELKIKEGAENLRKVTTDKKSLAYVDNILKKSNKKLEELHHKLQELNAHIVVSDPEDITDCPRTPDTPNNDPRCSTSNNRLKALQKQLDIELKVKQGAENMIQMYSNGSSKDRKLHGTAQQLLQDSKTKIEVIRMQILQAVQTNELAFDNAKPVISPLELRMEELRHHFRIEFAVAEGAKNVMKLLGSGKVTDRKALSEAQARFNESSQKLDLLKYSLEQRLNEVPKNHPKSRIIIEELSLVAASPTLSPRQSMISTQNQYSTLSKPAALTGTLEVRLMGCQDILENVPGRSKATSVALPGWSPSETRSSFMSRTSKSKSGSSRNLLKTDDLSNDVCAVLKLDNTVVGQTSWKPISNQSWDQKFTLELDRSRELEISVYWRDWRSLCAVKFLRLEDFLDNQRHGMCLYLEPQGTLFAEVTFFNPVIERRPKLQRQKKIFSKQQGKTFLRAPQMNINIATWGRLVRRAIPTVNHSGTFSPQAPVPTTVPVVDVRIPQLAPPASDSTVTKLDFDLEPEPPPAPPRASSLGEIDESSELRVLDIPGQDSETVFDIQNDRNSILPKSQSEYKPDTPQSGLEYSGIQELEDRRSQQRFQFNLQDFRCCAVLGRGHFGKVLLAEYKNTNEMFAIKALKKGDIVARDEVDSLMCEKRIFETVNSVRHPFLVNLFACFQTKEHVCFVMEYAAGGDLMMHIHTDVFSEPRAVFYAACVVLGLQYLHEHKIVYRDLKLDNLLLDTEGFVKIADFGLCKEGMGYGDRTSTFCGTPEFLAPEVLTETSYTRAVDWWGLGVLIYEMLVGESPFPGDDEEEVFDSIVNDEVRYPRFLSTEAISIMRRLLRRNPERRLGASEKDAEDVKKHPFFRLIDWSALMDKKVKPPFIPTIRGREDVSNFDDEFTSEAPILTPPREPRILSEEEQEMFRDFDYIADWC
T1 sequence (P04049 whole entry): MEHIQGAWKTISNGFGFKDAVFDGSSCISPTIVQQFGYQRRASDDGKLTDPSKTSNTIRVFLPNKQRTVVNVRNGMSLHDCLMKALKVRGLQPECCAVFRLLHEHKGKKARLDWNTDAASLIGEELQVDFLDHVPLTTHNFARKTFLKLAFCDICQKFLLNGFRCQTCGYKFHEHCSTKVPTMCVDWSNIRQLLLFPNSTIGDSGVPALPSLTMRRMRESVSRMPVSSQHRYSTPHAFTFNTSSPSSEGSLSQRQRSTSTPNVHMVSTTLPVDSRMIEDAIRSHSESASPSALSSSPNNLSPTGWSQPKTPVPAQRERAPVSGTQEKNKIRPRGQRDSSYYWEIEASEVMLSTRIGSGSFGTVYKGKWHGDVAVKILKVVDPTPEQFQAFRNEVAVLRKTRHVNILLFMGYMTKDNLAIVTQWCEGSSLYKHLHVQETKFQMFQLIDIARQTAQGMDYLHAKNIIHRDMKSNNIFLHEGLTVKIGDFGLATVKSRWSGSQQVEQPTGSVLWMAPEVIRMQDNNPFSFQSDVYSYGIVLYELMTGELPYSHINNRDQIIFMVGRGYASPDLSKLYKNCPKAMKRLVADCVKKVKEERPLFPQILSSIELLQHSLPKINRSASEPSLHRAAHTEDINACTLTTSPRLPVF
T3 sequence (P10721 26-976): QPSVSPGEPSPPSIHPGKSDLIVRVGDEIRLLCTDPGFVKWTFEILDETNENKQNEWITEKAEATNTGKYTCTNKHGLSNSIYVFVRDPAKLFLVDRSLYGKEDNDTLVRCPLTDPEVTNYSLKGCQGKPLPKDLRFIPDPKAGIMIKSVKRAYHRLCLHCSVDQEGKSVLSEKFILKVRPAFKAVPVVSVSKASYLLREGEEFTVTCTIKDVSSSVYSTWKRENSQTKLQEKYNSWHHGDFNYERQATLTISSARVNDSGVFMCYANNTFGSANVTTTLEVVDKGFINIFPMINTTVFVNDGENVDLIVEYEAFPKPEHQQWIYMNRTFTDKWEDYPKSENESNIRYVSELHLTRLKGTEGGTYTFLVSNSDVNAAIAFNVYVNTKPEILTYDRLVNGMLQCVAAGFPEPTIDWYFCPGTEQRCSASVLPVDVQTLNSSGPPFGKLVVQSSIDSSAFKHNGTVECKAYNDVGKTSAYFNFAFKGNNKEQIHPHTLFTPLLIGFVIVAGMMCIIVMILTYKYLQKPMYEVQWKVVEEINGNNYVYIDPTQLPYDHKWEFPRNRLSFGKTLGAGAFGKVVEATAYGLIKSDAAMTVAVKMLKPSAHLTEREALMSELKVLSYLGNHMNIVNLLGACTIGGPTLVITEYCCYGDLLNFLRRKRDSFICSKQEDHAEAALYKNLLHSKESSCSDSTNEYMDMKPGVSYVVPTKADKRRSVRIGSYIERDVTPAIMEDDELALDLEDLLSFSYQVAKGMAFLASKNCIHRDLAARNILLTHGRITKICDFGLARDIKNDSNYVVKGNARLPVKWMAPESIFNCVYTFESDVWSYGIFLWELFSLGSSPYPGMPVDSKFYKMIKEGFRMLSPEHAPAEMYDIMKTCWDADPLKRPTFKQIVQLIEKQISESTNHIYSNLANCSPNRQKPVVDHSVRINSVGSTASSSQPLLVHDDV

In the case of `Cc1sc(C(=O)NC2COC2)cc1-n1cc(NC(=O)Nc2c(F)cccc2Cl)cn1` [Compound 27, 4-(4-(3-(2-chloro-6-fluorophenyl)ureido)-1H-pyrazol-1-yl)-5-methyl-N-(oxetan-3-yl)thiophene-2-carboxamide], the remaining activity at 10 µM in assay [1] (10 uM) was 92.6%; in assay [2] (10 uM), 99.8%; in assay [3] (10 uM) it was 64.4%; in assay [4] (10 uM) it was 69.1%; in assay [5] (read-out: % Enzyme Activity (relative to DMSO controls), kinase PKN2/PRK2, 10 uM), 87.1%; in assay [6] (10 uM), 113%. In addition, the values for the remaining activity at 10 µM in assay [7] (10 uM) and in assay [8] (10 uM) were 105% and 90.1%, respectively.

In the case of `O=C(Nc1cnn(-c2csc(C(=O)NC3COC3)c2)c1)Nc1c(F)cccc1Cl` [Compound 25, 4-(4-(3-(2-chloro-6-fluorophenyl)ureido)-1H-pyrazol-1-yl)-N-(oxetan-3-yl)thiophene-2-carboxamide], the remaining activity at 5 µM in assay [1] came to 92.5%; in assay [2], 90.3%; in assay [3], 94%; in assay [4], 99.2%; in assay [5] (kinase PKN2/PRK2, read-out: % Enzyme Activity (relative to DMSO controls)), 105%; in assay [6], 82.3%. The remaining activity at 5 µM in assay [7] stood at 81.1%; in assay [8] it was 95.3%.

Take `O=C(Nc1cnn(-c2csc(C(=O)NC3COC3)c2)c1)Nc1ccccc1Cl` [Compound 17, 4-(4-(3-(2-chlorophenyl)ureido)-1H-pyrazol-1-yl)-N-(oxetan-3-yl)thiophene-2-carboxamide]: the remaining activity at 5 µM in assay [1] was determined as 87%; in assay [2] it was 97.8%; in assay [3], 89.2%; in assay [4] it was 89.7%; in assay [5] (read-out: % Enzyme Activity (relative to DMSO controls), kinase PKN2/PRK2) it was 112%; in assay [6], 97.2%. Also, the remaining activity at 5 µM in assay [7] came out at 109%; in assay [8] it was 93.8%.

Values taken from US20240246942A1, “KINASE INHIBITORS FOR THE TREATMENT OF NEURODEGENERATIVE DISEASES” (priority 2020, published 2024).
